Test results as given in article PMC9415509, “Pro-Apoptotic Antitumoral Effect of Novel Acridine-Core Naphthoquinone Compounds against Oral Squamous Cell Carcinoma” (Molecules, 2022).

Tests used:
[1] = MTT cell viability assay, normal fibroblasts; type: cell-based, human; conditions: human, primary normal human gingival fibroblasts (ATCC PCS-201-018)
Description: (§1) Cells and reagents. Human SCC-4, SCC-9, and SCC-25 cells, derived from a human oral tongue SCC (squamous cell carcinoma) were obtained from the ATCC (CRL-1624, CRL-1629, and CRL-1628, respectively) and maintained in 1:1 DMEM/F12 (Dulbecco’s modified Eagle medium and Ham’s F12 medium; Gibco (Thermo Fisher, Waltham, MA, USA)) supplemented with 10% (v/v) FBS (fetal bovine serum; Invitrogen, Thermo Fisher, Waltham, MA, USA) and 400 ng/mL hydrocortisone (Sigma-Aldrich Co., St. Louis, MO, USA). Primary normal human gingival fibroblasts were obtained from the ATCC (PCS-201-018) and maintained in DMEM supplemented with 10% (v/v) FBS and were used in a maximum of six passages. The cells were grown in a humidified environment containing 5% CO2 at 37 °C. […] Carboplatin stock was prepared in water (Fauldcarbo®; LibbsFarmacêutica, São Paulo, SP, Brazil) and was used as a standard anticancer compound.
(§2) Cell viability assay (cytotoxicity) and compound stability assay. The viability of SCC cell lines and primary human fibroblast cells was evaluated using the MTT assay as in [48]. Briefly, the cells were grown in triplicates in 96-well plates (5 × 10^3 cells/well) until confluence. Then, the medium was removed, fresh medium was added, and the cells were returned to the incubator in the presence of different compounds. DMSO at the same concentrations was used as a 100% cell viability control. After 48 h, the cells were incubated with 5 mg/mL MTT reagent (3-(4,5-dimethyl-2-thiazolyl)-2,5-diphenyl-2-H-tetrazolium bromide) (Sigma-Aldrich Co., St. Louis, MO, USA) for 3.5 h. After that, formazan crystals were dissolved in MTT solvent solution (DMSO/methanol 1:1 v/v) and the absorbance at 560 nm was evaluated using an EPOCH microplate spectrophotometer (BioTek Instruments, Winooski, VT, USA) with the background absorbance at 670 nm subtracted.
(§3) Statistical analysis, IC50 calculation. The data are presented as means ±\SD. IC50 values for the MTT assays were obtained by nonlinear regression using the […] 5.0 program (Intuitive Software for Science, San Diego, CA, USA) from at least three independent experiments. A dose–response (inhibitor) vs. response curve using the least squares method was used to determine the IC50, SD, and R^2 of the data. The selectivity index was calculated as SI = IC50 of the compound in normal oral fibroblast cells/IC50 of the same compound for each oral cancer cell line (SCC-4, SCC-9, and SCC-25) and the mean was calculated when indicated.

[2] = system: Primary normal human gingival fibroblasts; assay: MTT cell viability assay, normal fibroblasts; type: cell-based; conditions: Homo sapiens, Fibroblast; primary gingival fibroblasts, 48 h, MTT; read-out: Primary Gingival Fibroblast IC50
Description: as §1, §2, §3

For `CC1(C)CC(=O)C2=C(C1)NC1=C(C(=O)c3ccccc3C1=O)C2c1ccc(Cl)cc1Cl` (centres unmarked) [4e, 12-(2,4-dichlorophenyl)-3,3-dimethyl-3,4-dihydrobenzo[b]acridine-1,6,11(2H,5H,12H)-trione], the viability at 48 h [1] was > 75% and the IC50 [2] was 88 µM.
